Measurements published in ChEMBL document CHEMBL4190187, “Discovery of pyrazolopyrimidine derivatives as novel inhibitors of ataxia telangiectasia and rad3 related protein (ATR)” (Bioorg Med Chem Lett, 2017).

Legend:
[1] = target: G protein-coupled receptor kinase 5 (Homo sapiens) (UniProt P34947); assay: Inhibition of recombinant full-length human GRK5 at 1 uM using casein as substrate after 40 mins in presence of [gamma-33P]ATP by scintillation counting method
[2] = target: cAMP-dependent protein kinase catalytic subunit PRKX (Homo sapiens) (UniProt P51817); assay: Inhibition of recombinant full-length human PRKX at 1 uM using RRRLSFAEPG as substrate after 40 mins in presence of [gamma-33P]ATP by scintillation counting method
[3] = target: Serine/threonine-protein kinase TAO1 (Homo sapiens) (UniProt Q7L7X3); assay: Inhibition of recombinant human TAO1 (1 to 327 residues) at 1 uM using myelin basic protein as substrate after 40 mins in presence of [gamma-33P]ATP by scintillation counting method
[4] = target: Mitogen-activated protein kinase kinase kinase kinase 4 (Homo sapiens) (UniProt O95819); assay: Inhibition of recombinant human MAP4K4 (1 to 328 residues) at 1 uM using RLGRDKYKTLRQIRQ as substrate after 40 mins in presence of [gamma-33P]ATP by scintillation counting method
[5] = target: Insulin receptor-related protein (Homo sapiens) (UniProt P14616); assay: Inhibition of recombinant human IRR (943 to 1266 residues) at 1 uM using myelin basic protein as substrate after 40 mins in presence of [gamma-33P]ATP by scintillation counting method
[6] = target: Receptor-type tyrosine-protein kinase FLT3 (Homo sapiens) (UniProt P36888); assay: Inhibition of recombinant human Flt3 (564 to end residues) at 1 uM using EAIYAAPFAKKK as substrate after 40 mins in presence of [gamma-33P]ATP by scintillation counting method
[7] = target: Casein kinase II subunit alpha (Homo sapiens) (UniProt P68400); assay: Inhibition of recombinant full-length human CK2 at 1 uM using RRRDDDSDDD as substrate after 40 mins in presence of [gamma-33P]ATP by scintillation counting method
[8] = tested on: Angiopoietin-1 receptor (Homo sapiens), Q02763 [Y897S]; assay: Inhibition of recombinant activated human Tie2 Y897S mutant (771 to end residues) at 1 uM using EFPIYDFLPAKKK as substrate after 40 mins in presence of [gamma-33P]ATP by scintillation counting method
[9] = target: Fibroblast growth factor receptor 2 (Homo sapiens) (UniProt P21802); assay: Inhibition of recombinant human FGFR2 (456 to 770 residues) at 1 uM using poly(Glu,Tyr) 4:1 as substrate after 40 mins in presence of [gamma-33P]ATP by scintillation counting method
[10] = target: Serine/threonine-protein kinase 3 (Homo sapiens) (UniProt Q13188); assay: Inhibition of recombinant human MST2 (2 to end residues) at 1 uM using myelin basic protein as substrate after 40 mins in presence of [gamma-33P]ATP by scintillation counting method
[11] = target: Serine/threonine-protein kinase DCLK3 (Homo sapiens) (UniProt Q9C098); assay: Inhibition of recombinant human DCAMKL3 (345 to end residues) at 1 uM using KKLNRTLSFAEPG as substrate after 40 mins in presence of [gamma-33P]ATP by scintillation counting method
[12] = target: MAP kinase-activated protein kinase 3 (Homo sapiens) (UniProt Q16644); assay: Inhibition of recombinant human MAPKAPK3 (2 to end residues) at 1 uM using KKLNRTLSVA as substrate after 40 mins in presence of [gamma-33P]ATP by scintillation counting method
[13] = target: Serine/threonine-protein kinase Nek1 (Homo sapiens) (UniProt Q96PY6); assay: Inhibition of recombinant human NEK1 (1 to 505 residues) at 1 uM using RLGRDKYKTLRQIRQ as substrate after 40 mins in presence of [gamma-33P]ATP by scintillation counting method
[14] = target: Serine/threonine-protein kinase Nek6 (Homo sapiens) (UniProt Q9HC98); assay: Inhibition of recombinant human NEK6 (2 to end residues) at 1 uM using FLAKSFGSPNRAYKK as substrate after 40 mins in presence of [gamma-33P]ATP by scintillation counting method
[15] = target: Protein-tyrosine kinase 2-beta (Homo sapiens) (UniProt Q14289); assay: Inhibition of recombinant full-length human Pyk2 at 1 uM using poly(Glu,Tyr) 4:1 as substrate after 40 mins in presence of [gamma-33P]ATP by scintillation counting method
[16] = target: Dual specificity mitogen-activated protein kinase kinase 2 (Homo sapiens) (UniProt P36507); assay: Inhibition of recombinant full-length human MEK2 at 1 uM using MBP as substrate after 40 mins in presence of [gamma-33P]ATP by scintillation counting method
[17] = target: CDK12/Cyclin K (Homo sapiens) (UniProt O75909+Q9NYV4); assay: Inhibition of recombinant full-length human CDK12/Cyclin K at 1 uM using RSRSRSRSRSRSRSR as substrate after 120 mins in presence of [gamma-33P]ATP by scintillation counting method; assay type: protein-complex assay
[18] = target: Serine/threonine-protein kinase PAK 6 (Homo sapiens) (UniProt Q9NQU5); assay: Inhibition of recombinant human PAK6 (382 to end residues) at 1 uM using RRRLSFAEPG as substrate after 40 mins in presence of [gamma-33P]ATP by scintillation counting method
Saccharomyces cerevisiae = assay: Inhibition of recombinant Saccharomyces cerevisiae CK1alpha (2 to 298 residues) at 1 uM using KRRRALS(p)VASLPGL as substrate after 40 mins in presence of [gamma-33P]ATP by scintillation counting method
[19] = target: MAP kinase-activated protein kinase 2 (Homo sapiens) (UniProt P49137); assay: Inhibition of recombinant human MAPKAPK2 (46 to end residues) at 1 uM using KKLNRTLSVA as substrate after 40 mins in presence of [gamma-33P]ATP by scintillation counting method
[20] = target: Ribosomal protein S6 kinase alpha-3 (Homo sapiens) (UniProt P51812); assay: Inhibition of recombinant human Rsk2 (2 to end residues) at 1 uM using KKKNRTLSVA as substrate after 40 mins in presence of [gamma-33P]ATP by scintillation counting method
[21] = target: Activin receptor type-2A (Homo sapiens) (UniProt P27037); assay: Inhibition of recombinant human ACTR2 (162 to end residues) at 1 uM using casein as substrate after 120 mins in presence of [gamma-33P]ATP by scintillation counting method
[22] = target: Beta-adrenergic receptor kinase 1 (Homo sapiens) (UniProt P25098); assay: Inhibition of recombinant full-length human GRK2 at 1 uM using casein as substrate after 40 mins in presence of [gamma-33P]ATP by scintillation counting method
[23] = target: Serine/threonine-protein kinase WNK3 (Homo sapiens) (UniProt Q9BYP7); assay: Inhibition of recombinant human WNK3 (1 to 434 residues) at 1 uM using myelin basic protein as substrate after 40 mins in presence of [gamma-33P]ATP by scintillation counting method
Sequence of Serine/threonine-protein kinase WNK3 (Homo sapiens) (Q9BYP7 whole entry, the tested form may be a part): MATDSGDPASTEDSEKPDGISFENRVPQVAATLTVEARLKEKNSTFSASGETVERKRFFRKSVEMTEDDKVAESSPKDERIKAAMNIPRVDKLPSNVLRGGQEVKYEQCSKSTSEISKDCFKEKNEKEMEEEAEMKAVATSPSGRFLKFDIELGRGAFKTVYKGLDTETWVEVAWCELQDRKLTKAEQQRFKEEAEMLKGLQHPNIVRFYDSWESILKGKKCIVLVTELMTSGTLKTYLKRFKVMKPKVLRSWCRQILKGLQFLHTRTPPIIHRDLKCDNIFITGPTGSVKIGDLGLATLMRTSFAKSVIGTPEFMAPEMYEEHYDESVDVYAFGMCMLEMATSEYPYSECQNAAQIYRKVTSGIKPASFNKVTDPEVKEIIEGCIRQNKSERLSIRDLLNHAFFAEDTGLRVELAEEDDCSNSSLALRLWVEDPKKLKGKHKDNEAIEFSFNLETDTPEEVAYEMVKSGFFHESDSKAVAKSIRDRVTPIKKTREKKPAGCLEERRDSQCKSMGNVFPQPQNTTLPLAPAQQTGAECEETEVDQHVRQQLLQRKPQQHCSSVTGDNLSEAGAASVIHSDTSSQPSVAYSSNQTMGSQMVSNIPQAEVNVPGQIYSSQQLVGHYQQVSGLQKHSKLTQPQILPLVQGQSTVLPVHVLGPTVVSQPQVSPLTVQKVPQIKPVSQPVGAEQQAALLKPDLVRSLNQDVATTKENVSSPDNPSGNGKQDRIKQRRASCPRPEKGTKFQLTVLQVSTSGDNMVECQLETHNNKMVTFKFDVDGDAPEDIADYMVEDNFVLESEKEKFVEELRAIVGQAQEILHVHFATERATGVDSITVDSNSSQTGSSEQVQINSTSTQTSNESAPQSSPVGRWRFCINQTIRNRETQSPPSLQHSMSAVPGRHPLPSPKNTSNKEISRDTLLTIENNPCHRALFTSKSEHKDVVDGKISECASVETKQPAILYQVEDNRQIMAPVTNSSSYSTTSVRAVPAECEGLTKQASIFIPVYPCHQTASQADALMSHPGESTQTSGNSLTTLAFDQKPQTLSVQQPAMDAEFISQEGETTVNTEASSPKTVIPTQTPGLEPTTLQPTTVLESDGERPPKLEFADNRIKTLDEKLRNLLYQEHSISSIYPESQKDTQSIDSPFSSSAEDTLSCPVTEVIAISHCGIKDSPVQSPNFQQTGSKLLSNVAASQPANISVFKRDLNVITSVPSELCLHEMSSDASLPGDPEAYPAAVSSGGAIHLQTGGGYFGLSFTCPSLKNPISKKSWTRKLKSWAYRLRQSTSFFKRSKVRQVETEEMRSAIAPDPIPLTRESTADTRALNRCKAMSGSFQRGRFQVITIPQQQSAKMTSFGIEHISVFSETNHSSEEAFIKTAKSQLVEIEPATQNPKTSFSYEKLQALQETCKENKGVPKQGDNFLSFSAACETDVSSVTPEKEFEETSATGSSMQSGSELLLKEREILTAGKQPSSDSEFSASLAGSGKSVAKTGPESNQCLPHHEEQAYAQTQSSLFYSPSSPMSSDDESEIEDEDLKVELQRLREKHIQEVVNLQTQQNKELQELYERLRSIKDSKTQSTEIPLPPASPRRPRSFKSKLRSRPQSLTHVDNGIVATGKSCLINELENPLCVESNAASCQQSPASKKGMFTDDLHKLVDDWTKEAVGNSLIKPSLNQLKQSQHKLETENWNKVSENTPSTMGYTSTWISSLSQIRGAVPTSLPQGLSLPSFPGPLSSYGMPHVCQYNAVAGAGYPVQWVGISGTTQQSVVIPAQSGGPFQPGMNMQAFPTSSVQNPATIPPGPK

Sequence of CDK12/Cyclin K (Homo sapiens) (O75909 whole entry, looked up): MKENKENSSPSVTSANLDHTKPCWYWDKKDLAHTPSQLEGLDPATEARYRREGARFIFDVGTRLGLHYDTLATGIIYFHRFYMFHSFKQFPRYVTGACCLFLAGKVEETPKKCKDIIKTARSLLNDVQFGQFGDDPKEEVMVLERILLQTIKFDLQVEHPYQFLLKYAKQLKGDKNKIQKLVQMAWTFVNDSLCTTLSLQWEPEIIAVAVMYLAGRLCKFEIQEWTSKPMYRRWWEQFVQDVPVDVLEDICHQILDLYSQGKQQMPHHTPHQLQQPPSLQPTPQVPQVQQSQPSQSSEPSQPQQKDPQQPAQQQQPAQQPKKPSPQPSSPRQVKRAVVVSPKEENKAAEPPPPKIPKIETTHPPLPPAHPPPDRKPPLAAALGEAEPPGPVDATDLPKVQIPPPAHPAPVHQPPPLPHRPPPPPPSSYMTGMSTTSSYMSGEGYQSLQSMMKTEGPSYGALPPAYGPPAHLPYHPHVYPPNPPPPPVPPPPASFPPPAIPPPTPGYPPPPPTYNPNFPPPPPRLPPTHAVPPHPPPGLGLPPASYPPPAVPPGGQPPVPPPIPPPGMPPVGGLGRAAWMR
Sequence of CDK12/Cyclin K (Homo sapiens) (Q9NYV4 whole entry, looked up): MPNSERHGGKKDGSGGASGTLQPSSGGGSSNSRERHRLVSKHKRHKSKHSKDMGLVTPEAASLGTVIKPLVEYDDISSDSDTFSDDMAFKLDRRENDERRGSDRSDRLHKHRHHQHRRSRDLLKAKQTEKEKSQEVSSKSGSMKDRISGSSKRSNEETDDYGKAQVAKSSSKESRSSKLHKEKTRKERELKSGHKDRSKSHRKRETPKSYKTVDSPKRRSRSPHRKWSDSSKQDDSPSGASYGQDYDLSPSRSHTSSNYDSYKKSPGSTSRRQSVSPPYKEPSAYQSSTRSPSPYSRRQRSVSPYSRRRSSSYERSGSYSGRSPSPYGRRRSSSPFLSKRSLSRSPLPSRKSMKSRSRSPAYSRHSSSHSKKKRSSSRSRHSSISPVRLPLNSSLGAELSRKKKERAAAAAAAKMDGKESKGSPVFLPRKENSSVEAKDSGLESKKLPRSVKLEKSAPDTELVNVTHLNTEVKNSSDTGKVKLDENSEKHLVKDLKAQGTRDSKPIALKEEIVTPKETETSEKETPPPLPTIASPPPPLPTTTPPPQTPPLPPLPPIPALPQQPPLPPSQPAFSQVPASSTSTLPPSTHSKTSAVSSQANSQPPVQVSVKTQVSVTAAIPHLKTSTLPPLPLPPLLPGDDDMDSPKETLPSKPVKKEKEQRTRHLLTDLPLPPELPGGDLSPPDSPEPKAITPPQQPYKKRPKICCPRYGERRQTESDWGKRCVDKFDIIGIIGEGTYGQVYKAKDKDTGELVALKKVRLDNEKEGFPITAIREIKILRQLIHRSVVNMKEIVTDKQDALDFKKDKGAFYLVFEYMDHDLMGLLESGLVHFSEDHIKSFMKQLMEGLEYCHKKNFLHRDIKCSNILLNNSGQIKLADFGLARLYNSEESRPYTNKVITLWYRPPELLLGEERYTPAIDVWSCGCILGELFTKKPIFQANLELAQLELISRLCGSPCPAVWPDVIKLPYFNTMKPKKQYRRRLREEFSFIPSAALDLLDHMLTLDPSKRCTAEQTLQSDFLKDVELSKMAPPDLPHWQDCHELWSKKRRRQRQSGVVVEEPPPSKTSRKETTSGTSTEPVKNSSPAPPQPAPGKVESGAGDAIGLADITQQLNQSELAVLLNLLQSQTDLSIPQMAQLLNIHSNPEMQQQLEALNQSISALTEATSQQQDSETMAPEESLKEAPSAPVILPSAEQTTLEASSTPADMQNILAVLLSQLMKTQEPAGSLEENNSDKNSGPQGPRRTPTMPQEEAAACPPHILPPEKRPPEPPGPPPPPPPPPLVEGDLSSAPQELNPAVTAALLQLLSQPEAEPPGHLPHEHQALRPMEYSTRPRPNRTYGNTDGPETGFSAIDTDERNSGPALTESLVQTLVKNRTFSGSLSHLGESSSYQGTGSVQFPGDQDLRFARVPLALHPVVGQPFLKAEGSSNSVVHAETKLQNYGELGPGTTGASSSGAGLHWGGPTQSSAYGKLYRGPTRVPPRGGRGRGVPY
Sequence of Serine/threonine-protein kinase Nek6 (Homo sapiens) (Q9HC98 whole entry): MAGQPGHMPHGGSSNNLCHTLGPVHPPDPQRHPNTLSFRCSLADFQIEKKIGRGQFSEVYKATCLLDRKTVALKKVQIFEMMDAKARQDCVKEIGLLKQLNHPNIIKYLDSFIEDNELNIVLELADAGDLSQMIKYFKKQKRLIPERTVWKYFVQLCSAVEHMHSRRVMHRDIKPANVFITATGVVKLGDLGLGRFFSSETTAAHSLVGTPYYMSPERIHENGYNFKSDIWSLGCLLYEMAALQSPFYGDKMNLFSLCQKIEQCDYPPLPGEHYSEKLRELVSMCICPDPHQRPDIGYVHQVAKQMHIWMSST
Sequence of Fibroblast growth factor receptor 2 (Homo sapiens) (P21802 22-821 limits assumed): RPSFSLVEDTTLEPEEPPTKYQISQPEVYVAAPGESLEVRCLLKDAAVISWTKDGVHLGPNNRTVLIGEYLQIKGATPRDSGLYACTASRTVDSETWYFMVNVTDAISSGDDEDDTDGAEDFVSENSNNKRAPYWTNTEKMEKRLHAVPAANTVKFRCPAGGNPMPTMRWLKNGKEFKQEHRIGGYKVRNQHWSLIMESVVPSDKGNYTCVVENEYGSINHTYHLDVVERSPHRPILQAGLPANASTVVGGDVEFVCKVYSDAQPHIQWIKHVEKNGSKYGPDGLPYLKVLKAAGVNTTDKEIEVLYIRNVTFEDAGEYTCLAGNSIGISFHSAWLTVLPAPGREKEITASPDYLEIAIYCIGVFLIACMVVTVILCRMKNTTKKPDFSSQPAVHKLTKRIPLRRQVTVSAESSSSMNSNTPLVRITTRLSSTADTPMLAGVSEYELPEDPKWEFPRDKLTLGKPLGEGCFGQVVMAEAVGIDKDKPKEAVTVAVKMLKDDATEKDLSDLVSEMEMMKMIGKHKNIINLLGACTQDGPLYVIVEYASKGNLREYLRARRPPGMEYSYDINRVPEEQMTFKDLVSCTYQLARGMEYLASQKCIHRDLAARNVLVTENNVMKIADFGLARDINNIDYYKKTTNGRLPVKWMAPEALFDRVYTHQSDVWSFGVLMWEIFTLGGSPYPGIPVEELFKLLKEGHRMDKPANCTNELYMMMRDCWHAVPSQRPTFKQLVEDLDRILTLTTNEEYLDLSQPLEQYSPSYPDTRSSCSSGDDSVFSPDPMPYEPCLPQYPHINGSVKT

## CS(=O)(=O)c1ccc(-n2nc(-c3cnc4[nH]ccc4c3)c3c(N)ncnc32)cc1
[1]
  inhibition: -1%
[2]
  inhibition: -4%
[3]
  inhibition: 7%
[4]
  inhibition: -8%
[5]
  inhibition: -7%
[6]
  inhibition: 16%
[7]
  inhibition: 2%
[8]
  inhibition: 1%
[9]
  inhibition: 17%
[10]
  inhibition: 8%
[11]
  inhibition: -8%
[12]
  inhibition: -1%
[13]
  inhibition: -4%
[14]
  inhibition: -4%
[15]
  inhibition: 25%
[16]
  inhibition: -7%
[17]
  inhibition: -5%
[18]
  inhibition: 7%
Saccharomyces cerevisiae
  inhibition: 38%
[19]
  inhibition: -4%
[20]
  inhibition: -5%
[21]
  inhibition: 6%
[22]
  inhibition: 5%
[23]
  inhibition: 43%
